# Results reported in US20040067565A1, “Selective functionalization of hydrocarbons with isolated oxygenases and mediator based regeneration” (priority 2002, published 2004).
# Marks after values point to notes of the source that are not given here.
# Columns and labels:
# [1] = molecular target: monooxygenase component of styrene monooxygenase (StyA) (Pseudomonas sp, UniProt O50214); test: [Cp*Rh(bpy)(H2O)]2+ driven, StyA-catalyzed epoxidation / sulfoxidation; format: biochemical
# Protocol: In a typical experimental setup 1 ml total volume was placed in an Eppendorf cup in a Thermomixer. The temperature was set to 37° C. and the reaction mixture was shaken thoroughly to ensure O2 intake.
# Product formation was followed by reversed phase HPLC. The HPLC system (Merck) consisted of a D-7000 controller, L-7200 autosampler, L-7400 UV detector, L-7100 liquid chromatography pump and was fitted with a CC250/4 Nucleosil 100-5 C18 HD column. Samples were eluted under isocratic conditions using 60% acetonitrile and 40% water at a flow rate of 1 ml×min^−1. The elution pattern was monitored at 210 nm.
# 0.2 mM [Cp*Rh(bpy)(H2O)]^2+, 0.05 mM FAD, 0.005 mM FMN, 2 mM styrene, 280 U catalase, and 1.16 μM StyA in 50 mM potassium phosphate buffer with 150 mM sodium formate were incubated at 37° C. and agitation at 1500 rpm. At intervals, reactions were stopped by addition of one equivalent volume of cold acetonitrile. After centrifugation (15 min at 4° C. and 23000×g the upper phase was analyzed by reverse phase HPLC. Concentrations were corrected according to the phase ratio after centrifugation. Results from this experiment are given in FIG. 10 and Table 3.
# 0.2 mM [Cp*Rh(bpy)(H2O)]^2+, 0.02 mM FAD, 2 mM substrate, 200 U catalase, and 1.47 μM StyA in 50 mM potassium phosphate buffer with 150 mM sodium formate were incubated at 37° C. and agitation at 1500 rpm.
# Styrene oxide was analyzed using a CC200/4 Nucleodex α-PM (Machery-Nagel). As eluent 60% methanol and 40% 6.2 mM TEAA in water was used at a flow rate of 0.7 ml×min^−1. 1,2-Dihydronaphthalene oxide, trans-β-Methylstyrene oxide, indene oxide, and methyl phenyl sulfoxide were extracted from the reaction buffer with one aliquot hexane und analyzed unsing normal phase HPLC with a CHIRACEL OB—H column and hexane:isopropanol 95:5 (9:1 for methyl phenyl sulfoxide) at a flow rate of 0.5 ml*min^−1 as mobile phase. As reference either authentical samples of racemic epoxides were used. (Table 4). […]
# Cytochrome C (cytC) = molecular target: T1, Cytochrome C (cytC) (Equus caballus, UniProt P00004); test: [Cp*Rh(bpy)H]+ catalyzed, formate driven reduction of Cytochrome C (absorption at 550 nm); format: biochemical, horse; settings: for TF ([Cp*Rh(bpy)(H2O)]2+) / dc(CytC)red/dt: c(CytC) 31.2 μM, c(NaHCO2) 150 mM
# T1 construct: cytC- (from horse heart, Fluka, Buchs Switzerland); purchased Fluka, Buchs Switzerland; host or cells: horse heart
# T1 sequence (P00004 whole entry): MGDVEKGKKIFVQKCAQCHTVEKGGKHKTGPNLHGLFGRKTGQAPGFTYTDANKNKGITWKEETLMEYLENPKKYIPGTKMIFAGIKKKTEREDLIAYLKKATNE
# Protocol: In a typical experiment potassium phosphate buffer (50 mM, pH 7.0, c(NaHCO2)=150 mM) is supplemented with cytC- (from horse heart, Fluka, Buchs Switzerland) and [Cp*Rh(bpy)(H2O)]^2+-stocksolutions to 1 ml final volume in a quartz kuvette and placed into a thermostatted (T=30° C.) UV-spectrophotometer (UNICAM). After addition of the components, the absorption at λ=550 nm is followed. Concentrations of reduced CytC were determined after background correction according to the law of Lamber-Beer utilizing a molar extinction coefficient for reduced CytC of […].
# In another typical experiment, the reaction temperature was varied between 20 and 35° C.
# To exclude stoichiometric interaction of [Cp*Rh(bpy)(H2O)]^2+ with cytC, in another experiment low c([Cp*Rh(bpy)(H2O)]^2+) were applied. In 50 ml degassed potassium phosphate buffer (50 mM, pH 7.0, c(NaHCO2)=150 mM) 10 μM ([Cp*Rh(bpy)(H2O)]^2+) were incubated with 80 μM cytC (FIG. 9).
# [2] = system: 2-hydroxybiphenyl-3-monooxygenase (HbpA, E.C. 1.14.13.44); test: Residual HbpA activity while incubation with [Cp*Rh(bpy)(H2O)]2+; format: biochemical
# Protocol: HbpA-activities were determined by UV-spectroscopy according to literature methods by supplementing the experiment buffer with 0.1 mM NADH and observation of NADH-depletion at 340 nm for 1 minute, afterwards 2 mM of 2-hydroxybiphenyl were added and NADH depletion was measured for 1 minute. HbpA activity was determined as difference of both rates.
# In a first experiment 0.11 U*ml^−1 HbpA of a partially enriched crude extract from recombinant E. coli overexpressing HbpA was incubated at 30° C. with 0, 0.02, 0.04, and 0.1 mM [Cp*Rh(bpy)(H2O)]^2+. In a second experiment c[Cp*Rh(bpy)(H2O)]^2+) was maintained at 0.02 mM whereas the HbpA content varied form 0.22 U*ml^−1 to 1.52 U*ml^−1.
# [3] = system: several dehydrogenases (HLADH, TBADH, etc.); settings: previously reported [13]; cited from earlier work
# [4] = FIG. 10: 37 °C, 0.2 mM [Cp*Rh(bpy)(H2O)]2+, 0.05 mM FAD, 2 mM styrene, 1.16 μM StyA
# [5] = T 20 °C, c([Cp*Rh(bpy)(H2O)]2+) 100 μM
# [6] = T 30 °C, c([Cp*Rh(bpy)(H2O)]2+) 100 μM
# [7] = T 35 °C, c([Cp*Rh(bpy)(H2O)]2+) 50 μM
# [8] = [Cp*Rh(bpy)] 0.02 mM, [HbpA] 0.22 U/ml
# [9] = [Cp*Rh(bpy)] 0.02 mM, [HbpA] 0.44 U/ml
# [10] = [Cp*Rh(bpy)] 0.02 mM, [HbpA] 1.52 U/ml
# Sequence of monooxygenase component of styrene monooxygenase (StyA) (O50214 whole entry): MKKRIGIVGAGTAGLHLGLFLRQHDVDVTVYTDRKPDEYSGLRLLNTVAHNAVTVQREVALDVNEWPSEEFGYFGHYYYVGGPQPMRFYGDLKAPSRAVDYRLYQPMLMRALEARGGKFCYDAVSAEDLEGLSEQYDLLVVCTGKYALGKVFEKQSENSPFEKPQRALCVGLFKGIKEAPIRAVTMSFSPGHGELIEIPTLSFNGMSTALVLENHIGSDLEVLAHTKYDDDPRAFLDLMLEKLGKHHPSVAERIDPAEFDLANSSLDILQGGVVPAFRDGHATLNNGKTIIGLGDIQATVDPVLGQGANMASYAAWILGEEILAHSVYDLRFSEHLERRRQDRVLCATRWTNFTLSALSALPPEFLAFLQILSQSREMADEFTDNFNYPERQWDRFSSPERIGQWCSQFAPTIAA
structure (smiles),measurement,setting,value
Cc1c(C)c(C)[c-](C)c1C.O.[Rh+3].c1ccc(-c2ccccn2)nc1 [[Cp*Rh(bpy)(H2O)]^2+],[Cp*Rh(bpy)(H2O)]2+ performance TF,[1]; [4],11.3 h⁻¹
same,[Cp*Rh(bpy)(H2O)]2+ performance TTN,[1]; [4],5.3
same,relative activity,"[1]; calculated on FADH2 generation rate determined in the absence of StyA, FIG. 10 conditions",16.1^c %
same,total turnover number,"Cytochrome C (cytC); FIG. 9: 10 μM [Cp*Rh(bpy)(H2O)]2+, 80 μM cytC, 150 mM NaHCO2, 30 °C, degassed buffer, not optimized",6
same,TF ([Cp*Rh(bpy)(H2O)]2+),Cytochrome C (cytC); [5],4 h⁻¹
same,dc(CytC)red/dt,Cytochrome C (cytC); [5],0.4 mM * h^−
same,TF ([Cp*Rh(bpy)(H2O)]2+),Cytochrome C (cytC); [6],21 h⁻¹
same,dc(CytC)red/dt,Cytochrome C (cytC); [6],2.1 mM * h^−
same,TF ([Cp*Rh(bpy)(H2O)]2+),Cytochrome C (cytC); [7],32 h⁻¹
same,dc(CytC)red/dt,Cytochrome C (cytC); [7],1.6 mM * h^−
same,Turnover frequencies as CytC reduction catalyst,Cytochrome C (cytC); depend on the reaction temperature (20-35 °C),4-32 turnovers per hour
same,effect of incubation on HbpA enzymatic activity,[2],complete loss of enzymatic activity
same,HbpA activity at t = 60 min,[2]; [8],16%
same,t25%,[2]; [8],39 min
same,HbpA activity at t = 60 min,[2]; [9],42%
same,t25%,[2]; [9],173 min
same,HbpA activity at t = 60 min,[2]; [10],68%
same,t25%,[2]; [10],>1260 min
same,t25%,"[2]; [Hbpa] 0.11 U/ml, [Cp*Rh(bpy)] 0.02 mM, 30 °C",70 min
same,t25%,"[2]; [Hbpa] 0.11 U/ml, [Cp*Rh(bpy)] 0.04 mM, 30 °C",12 min
same,t25%,"[2]; [Hbpa] 0.11 U/ml, [Cp*Rh(bpy)] 0.1 mM, 30 °C",<5 min
same,influence on the activity of several dehydrogenases,[3],no influence on the activity
